According to PubChem BioAssay (NCI):
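All cell lines were grown in 96-well plates and treated with compound for 48 hours. At the GI50, growth is halved. TGI marks complete inhibition of growth.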

Columns and labels:
Test in all cases: growth of human tumour cells (NCI), 48 h
KM12 colon = tested on: KM12 colon
HL-60(TB) leukemia = tested on: HL-60(TB) leukemia
A498 renal = tested on: A498 renal
UACC-62 melanoma = tested on: UACC-62 melanoma
NCI-H23 lung = tested on: NCI-H23 lung
NCI/ADR-RES ovarian = tested on: NCI/ADR-RES ovarian
PC-3 prostate = tested on: PC-3 prostate
MDA-MB-231 breast = tested on: MDA-MB-231 breast
MCF7 breast = tested on: MCF7 breast
T-47D breast = tested on: T-47D breast

Compound | TGI (KM12 colon) [µM] | TGI (HL-60(TB) leukemia) [µM] | TGI (A498 renal) [µM] | TGI (UACC-62 melanoma) [µM] | TGI (NCI-H23 lung) [µM] | GI50 (KM12 colon) [nM] | GI50 (A498 renal) [nM] | GI50 (UACC-62 melanoma) [nM] | GI50 (NCI-H23 lung) [nM] | GI50 (NCI/ADR-RES ovarian) [µM] | TGI (NCI/ADR-RES ovarian) [µM] | GI50 (PC-3 prostate) [nM] | TGI (PC-3 prostate) [µM] | GI50 (MDA-MB-231 breast) [nM] | TGI (MDA-MB-231 breast) [µM] | GI50 (HL-60(TB) leukemia) [µM] | GI50 (MCF7 breast) [µM] | TGI (MCF7 breast) [µM] | GI50 (T-47D breast) [µM] | TGI (T-47D breast) [µM]
Cc1ccc(NC(=O)/C(C#N)=C/c2ccccc2)c(C)c1 | > 100 | > 100 | > 100 | > 100 | > 100 |  |  |  |  |  |  |  |  |  |  |  |  |  |  | 
CC(=O)Nc1ccc(S(=O)(=O)NN(C)S(=O)(=O)c2ccc(C)cc2)cc1 | > 100 | > 100 | > 100 | > 100 | > 100 |  |  |  |  |  |  |  |  |  |  |  |  |  |  | 
O=C(Cc1ccccc1)C(c1ccccc1)S(=O)(=O)c1ccccc1 (stereo unspecified) | > 100 | > 100 | > 100 | > 100 | > 100 |  |  |  |  |  |  |  |  |  |  |  |  |  |  | 
C=C1C(=O)O[C@H]2[C@H]1CC/C(COC(=O)NCc1c[nH]c3ccc(F)cc13)=C\CC[C@@]1(C)O[C@@H]21 | 10.3 |  | 12.9 | 2.87 | 3.89 | 3030 | 3460 | 1470 | 1830 | 3.58 | 20.3 | 1480 | 3.05 | 1630 | 3.16 |  |  |  |  | 
CN(C)CCCn1c2c(c3cc4c(cc3c1=O)OCO4)C(=O)c1ccccc1-2 | 14.5 | 20.4 |  | 9.57 |  | 2890 |  | 1050 | 231 |  |  | 365 | 3.59 | 465 | 4.29 | 3.35 | 6.84 | > 26.8 | 22.7 | > 100
CC1CCN(CCOc2ccc(CNc3ccc4nc(CCC5CCCCC5)[nH]c4c3)cc2)CC1 | 3.51 | 3.99 | 3.7 | 3.36 | 3.98 | 1770 | 1770 | 1900 | 1890 | 1.81 | 4.12 | 1440 | 2.93 | 1530 | 2.94 | 1.83 | 1.73 | 3.8 |  | 
CC(=O)OCC(CC[CH2][Sn]([Cl])([Cl])[c]1ccccc1)OC(C)=O (stereo unspecified) | 33.2 | 42.6 |  | 25.6 | 39.4 | 17800 |  | 12600 | 19500 |  |  |  |  |  |  | 16.8 |  |  |  | 
N#C/C(=C1\OC(=N)C(c2ccc(Cl)cc2Cl)C1=O)c1ccc(Cl)cc1Cl (stereo unspecified) |  | > 100 | > 100 | > 100 | > 100 |  |  |  |  |  |  |  |  |  |  |  |  |  |  | 
COc1ccc(/C=N\Nc2nc(SCC(C)C)nc(-c3ccc(OC)cc3)c2C#N)cc1 | > 100 | > 100 | 7.14 | > 100 | 31.7 | 10600 | 2490 | 25200 | 12200 | 10.8 | 85.4 |  |  | 6660 | 25 | > 100 | 13.8 | > 100 | 1.36 | 10.7
C=C1C=CC2(Br)OC3CC(C)(Cl)C(Br)CC13C2(C)C (stereo unspecified) | 58.9 | 33.9 | 46.5 | 34.3 | 39.2 |  |  |  |  |  |  |  |  |  |  |  |  |  |  | 
COc1ccc2nc3cc(Cl)ccc3c(N3CCN(c4ccnc(N5CCN(C)CC5)n4)CC3)c2c1 | 4.38 | 5.03 | 40.7 | 3.69 | 4.17 | 2090 | 10300 | 1860 | 2020 | 3.66 | 12.4 | 1920 | 3.87 |  |  | 2.14 |  |  |  | 
